Measurements reported in PMC12051620, “Molecular basis underlying the specificity of an antagonist AA92593 for mammalian melanopsins” (The Journal of Biological Chemistry, 2025).

Target: T1, mouse melanopsin (Mus musculus, UniProt Q9QXZ9)
T1 construct: the C-terminal amino acid residues (94, 140, 200, 214, 296, and 308 residues); expressed in transfected cells; host or cells: COS-1
Assay: GsX GloSensor assay with exogenous Gsα WT
Type: cell-based
Conditions: 16.7 μM AA92593; COS-1 cells
Source text: Previous studies of human and mouse melanopsins reported that these melanopsins can activate not only Gq but Gs and Gi ([20], [21], [22]). Thus, we assessed the effect of AA92593 on Gsα WT or Gsα/i11 (with 11 C-terminal sequence of Giα) using the GsX GloSensor assay. In agreement with the promiscuous G protein-coupling of melanopsins, we observed light-dependent increase of GloSensor luminescence in COS-1 cells expressing Gsα or Gsα/i11 with human/mouse melanopsins (Fig. 1, G–J).
For GloSensor assay, opsins, GloSensor assay sensor (coded by pGlo-22F), and NanoBiT-tagged G proteins were transiently expressed in COS-1 cells (kindly provided from Dr David Farrens, Oregon Health and Science University) using PEI as described previously ([24], [52]). […] For GFP-fluorescence microscopy, a 35-mm cell culture dish (IWAKI) was transfected with 2 μg melanopsin-GFP plasmid and 8 μg PEI in 400 μl Opti-mem and 1.2 ml D-MEM. […]
The transfected COS-1 cells were incubated at 37 °C, 5% CO2 for 2 days, and the medium was aspirated and exchanged with 50 μl of HBSS (145 mM NaCl, 10 mM D-glucose, 5 mM KCl, 1 mM MgCl2, 1.7 mM CaCl2, 1.5 mM NaHCO3, 10 mM Hepes, pH 7.4), containing 33.3, 20, 10, 2, 0.2, 0.02, 0.002, or 0 μM AA92593, 0.5% dimetyl sulfoxide (DMSO), and 4% (vol/vol) GloSensor cAMP reagent stock solution. […] Luminescence was measured using GM-2000 or GM-3510 microplate reader (Promega). […]

T1 sequence (Q9QXZ9 1-381 limits assumed): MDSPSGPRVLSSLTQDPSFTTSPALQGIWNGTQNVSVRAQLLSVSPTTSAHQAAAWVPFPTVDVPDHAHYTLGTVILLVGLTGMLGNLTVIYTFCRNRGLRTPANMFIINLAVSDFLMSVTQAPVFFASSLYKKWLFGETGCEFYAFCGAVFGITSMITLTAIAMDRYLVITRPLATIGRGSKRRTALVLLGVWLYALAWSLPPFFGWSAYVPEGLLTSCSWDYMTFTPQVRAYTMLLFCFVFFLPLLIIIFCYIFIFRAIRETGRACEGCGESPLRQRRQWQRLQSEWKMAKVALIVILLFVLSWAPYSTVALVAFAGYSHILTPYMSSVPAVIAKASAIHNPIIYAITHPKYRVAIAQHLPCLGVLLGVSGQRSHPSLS

COc1ccc(S(=O)(=O)N2CCCCC2)cc1C [AA92593]
effect on melanopsin-induced cAMP responses via exogenous Gsα: can suppress
